According to US20170334899A1, “AMINO-SUBSTITUTED ISOTHIAZOLES” (Bayer Pharma Aktiengesellschaft, priority 2014, published 2017):
“And” between values parts separate entries of the source, which are not always exact repeats. Equal entries are not always repeated.

Target: T1, human kinase Mps-1 (Homo sapiens, UniProt P33981)
T1 construct: N-terminally GST-tagged human full length recombinant Mps-1 kinase; GST (N); purchased Invitrogen, Karslruhe, Germany PV4071
T1 sequence (P33981 1-857): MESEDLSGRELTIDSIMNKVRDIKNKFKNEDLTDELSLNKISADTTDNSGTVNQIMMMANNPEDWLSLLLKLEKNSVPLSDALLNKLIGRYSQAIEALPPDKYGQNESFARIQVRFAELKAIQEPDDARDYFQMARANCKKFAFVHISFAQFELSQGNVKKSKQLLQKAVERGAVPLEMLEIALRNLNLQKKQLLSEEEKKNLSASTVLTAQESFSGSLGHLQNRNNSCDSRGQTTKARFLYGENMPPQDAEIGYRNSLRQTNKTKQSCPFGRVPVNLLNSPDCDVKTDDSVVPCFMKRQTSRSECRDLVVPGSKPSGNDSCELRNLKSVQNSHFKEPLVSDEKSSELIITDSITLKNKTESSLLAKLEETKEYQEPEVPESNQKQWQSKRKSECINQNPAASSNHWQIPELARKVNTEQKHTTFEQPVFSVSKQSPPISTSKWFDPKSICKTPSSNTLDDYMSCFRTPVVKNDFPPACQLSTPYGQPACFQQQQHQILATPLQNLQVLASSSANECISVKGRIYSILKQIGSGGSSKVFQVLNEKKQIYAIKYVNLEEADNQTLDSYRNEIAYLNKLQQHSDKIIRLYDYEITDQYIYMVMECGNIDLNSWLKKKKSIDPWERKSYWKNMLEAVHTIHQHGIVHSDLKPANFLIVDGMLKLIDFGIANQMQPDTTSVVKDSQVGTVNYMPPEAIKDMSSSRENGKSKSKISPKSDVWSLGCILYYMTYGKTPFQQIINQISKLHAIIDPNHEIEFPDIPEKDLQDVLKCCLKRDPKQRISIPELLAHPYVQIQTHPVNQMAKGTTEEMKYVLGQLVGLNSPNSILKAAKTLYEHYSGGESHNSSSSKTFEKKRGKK
Assay: Mps-1 kinase assay (TR-FRET)
Assay type: biochemical
Details: Mps-1 TR-FRET kinase assay; avg; read-out: Mps1 avg (IC50 [mol/l])
How it was run: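 GST-tagged full-length recombinant human Mps-1 (~0.5 nM) pre-incubated 15 min with compound, then reacted 60 min at 22 °C with 10 μM ATP and 1 μM biotinylated peptide in Hepes pH 7.7 buffer. EDTA-stopped; TR-FRET (Eu anti-phospho-Ser/Thr to SA-XLent) 665/620 nm ratio normalised to no-inhibitor and no-enzyme controls.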

Row | IC50 | SMILES
1 | > 20 µM | Cc1nsc(Nc2cncc(C(F)(F)F)n2)c1C(=O)Nc1ccc(OC2CCN(CCF)CC2)c(F)c1 [Example 223, N-(3-fluoro-4-{[1-(2-fluoroethyl)piperidin-4-yl]oxy}phenyl)-3-methyl-5-{[6-(trifluoromethyl)pyrazin-2-yl]amino}-1,2-thiazole-4-carboxamide]
2 | > 20 µM | Cc1nsc(Nc2cncc(C(F)(F)F)n2)c1C(=O)Nc1ccc(OC2CCN(CC(F)F)CC2)c(F)c1 [Example 224, N-(4-{[1-(2,2-difluoroethyl)piperidin-4-yl]oxy}-3-fluorophenyl)-3-methyl-5-{[6-(trifluoromethyl)pyrazin-2-yl]amino}-1,2-thiazole-4-carboxamide]
3 | > 20 µM | Cc1nsc(Nc2cncc(C(F)(F)F)n2)c1C(=O)Nc1ccc(C(=O)NC2CCN(CC(F)F)CC2)cc1 [Example 225, N-N-(4-{[1-(2,2-difluoroethyl)piperidin-4-yl]carbamoyl}phenyl)-3-methyl-5-{[6-(trifluoromethyl)pyrazin-2-yl]amino}-1,2-thiazole-4-carboxamide]
4 | > 20 µM | Cc1nsc(Nc2cncc(C(F)(F)F)n2)c1C(=O)Nc1ccc(OCC2CCN(C(=O)OC(C)(C)C)CC2)nc1 [Example 226, tert-butyl 4-{[(5-{[(3-methyl-5-{[6-(trifluoromethyl)pyrazin-2-yl]amino}-1,2-thiazol-4-yl)carbonyl]amino}pyridin-2-yl)oxy]methyl}piperidine-1-carboxylate]
5 | > 20 µM | Cc1nsc(Nc2cnc(C(F)(F)F)cn2)c1C(=O)Nc1ccc(OCC2CCN(C(=O)OC(C)(C)C)CC2)nc1 [Example 227, tert-butyl 4-{[(5-{[(3-methyl-5-{[5-(trifluoromethyl)pyrazin-2-yl]amino}-1,2-thiazol-4-yl)carbonyl]amino}pyridin-2-yl)oxy]methyl}piperidine-1-carboxylate]
6 | > 20 µM | Cc1nsc(Nc2cnc(C(F)(F)F)cn2)c1C(=O)Nc1ccc(OCC2CCCN(C(=O)OC(C)(C)C)C2)nc1 (centres unmarked) [Example 228, tert-butyl 3-{[(5-{[(3-methyl-5-{[5-(trifluoromethyl)pyrazin-2-yl]amino}-1,2-thiazol-4-yl)carbonyl]amino}pyridin-2-yl)oxy]methyl}piperidine-1-carboxylate]
7 | > 20 µM | Cc1nsc(Nc2cnc(C(F)(F)F)cn2)c1C(=O)Nc1ccc(F)c(OC2CCN(C(=O)OC(C)(C)C)CC2)c1 [Example 229, tert-butyl 4-(2-fluoro-5-{[(3-methyl-5-{[5-(trifluoromethyl)pyrazin-2-yl]amino}-1,2-thiazol-4-yl)carbonyl]amino}phenoxy)piperidine-1-carboxylate]
8 | > 20 µM | Cc1nsc(Nc2cc(C#N)ccn2)c1C(=O)Nc1ccc(Oc2cccc(C(F)(F)F)c2)nc1 [Example 230, 5-[(4-cyanopyridin-2-yl)amino]-3-methyl-N-{6-[3-(trifluoromethyl)phenoxy]pyridin-3-yl}-1,2-thiazole-4-carboxamide]
9 | > 20 µM | Cc1nsc(Nc2cnc3ccccc3n2)c1C(=O)Nc1ccc(Oc2cccnc2)nc1 [Example 231, 3-methyl-N-[6-(pyridin-3-yloxy)pyridin-3-yl]-5-(quinoxalin-2-ylamino)-1,2-thiazole-4-carboxamide]
10 | > 20 µM | Cc1nsc(Nc2cnc3ccccc3n2)c1C(=O)Nc1ccc(Oc2ccc(SC(F)(F)F)cc2)nc1 [Example 233, 3-methyl-5-(quinoxalin-2-ylamino)-N-(6-{4-[(trifluoromethyl)sulfanyl]phenoxy}pyridin-3-yl)-1,2-thiazole-4-carboxamide]
11 | > 20 µM | Cc1nsc(Nc2cnc3ccccc3n2)c1C(=O)Nc1ccc(NC2CCN(C(=O)OC(C)(C)C)CC2)nc1 [Example 234, tert-butyl 4-{[5-({[3-methyl-5-(quinoxalin-2-ylamino)-1,2-thiazol-4-yl]carbonyl}amino)pyridin-2-yl]amino}piperidine-1-carboxylate]
12 | 12 µM | COc1ccc(NC(=O)c2c(C)nsc2Nc2cnc3ccccc3n2)c(CC#N)n1 [Example 235, N-[2-(cyanomethyl)-6-methoxypyridin-3-yl]-3-methyl-5-(quinoxalin-2-ylamino)-1,2-thiazole-4-carboxamide]
13 | > 20 µM and 14 µM | Cc1nsc(Nc2cnc3ccccc3n2)c1C(=O)Nc1ccc(NCCC(=O)OC(C)(C)C)nc1 [Example 236, tert-butyl N-[5-({[3-methyl-5-(quinoxalin-2-ylamino)-1,2-thiazol-4-yl]carbonyl}amino)pyridin-2-yl]-beta-alaninate]
14 | > 20 µM | COC(=O)c1cc(NC(=O)c2c(C)nsc2Nc2cnc3ccccc3n2)cc(C(=O)OC)c1 [Example 237, dimethyl 5-({[3-methyl-5-(quinoxalin-2-ylamino)-1,2-thiazol-4-yl]carbonyl}amino)isophthalate]
15 | > 20 µM | Cc1nsc(Nc2cc(C#N)ccn2)c1C(=O)Nc1cccc(C(=O)OC(C)(C)C)c1 [Example 239, tert-butyl 3-[({5-[(4-cyanopyridin-2-yl)amino]-3-methyl-1,2-thiazol-4-yl}carbonyl)amino]benzoate]
16 | > 20 µM | Cc1nsc(Nc2ccc(C#N)cn2)c1C(=O)Nc1cccc(C(=O)OC(C)(C)C)c1 [Example 240, tert-butyl 3-[({5-[(5-cyanopyridin-2-yl)amino]-3-methyl-1,2-thiazol-4-yl}carbonyl)amino]benzoate]
17 | > 20 µM | Cc1nsc(Nc2cnc3ccccc3n2)c1C(=O)Nc1ccc(NC2CCCN(C(=O)OC(C)(C)C)C2)nc1 (centres unmarked) [Example 241, tert-butyl 3-{[5-({[3-methyl-5-(quinoxalin-2-ylamino)-1,2-thiazol-4-yl]carbonyl}amino)pyridin-2-yl]amino}piperidine-1-carboxylate]
18 | > 20 µM | Cc1nsc(Nc2cc(C#N)ccn2)c1C(=O)Nc1ccc(NC2CCCNC2)nc1 (centres unmarked) [Example 242, 5-[(4-cyanopyridin-2-yl)amino]-3-methyl-N-[6-(piperidin-3-ylamino)pyridin-3-yl]-1,2-thiazole-4-carboxamide]
19 | > 20 µM | Cc1cc(C)n(-c2ccccc2NC(=O)c2c(C)nsc2Nc2cnc3ccccc3n2)n1 [Example 243, N-[2-(3,5-dimethyl-1H-pyrazol-1-yl)phenyl]-3-methyl-5-(quinoxalin-2-ylamino)-1,2-thiazole-4-carboxamide]
20 | > 20 µM | Cc1nsc(Nc2cnc3ccccc3n2)c1C(=O)Nc1ccc(NCCNC(=O)OC(C)(C)C)nc1 [Example 244, tert-butyl (2-{[5-({[3-methyl-5-(quinoxalin-2-ylamino)-1,2-thiazol-4-yl]carbonyl}amino)pyridin-2-yl]amino}ethyl)carbamate]
21 | > 20 µM and 19 µM | Cc1nsc(Nc2cnc3ccccc3n2)c1C(=O)Nc1ccc(Nc2ccc(F)c(F)c2)nc1 [Example 245, N-{6-[(3,4-difluorophenyl)amino]pyridin-3-yl}-3-methyl-5-(quinoxalin-2-ylamino)-1,2-thiazole-4-carboxamide]
22 | > 20 µM | Cc1nsc(Nc2ccc(C#N)cn2)c1C(=O)Nc1ccc(S(C)(=O)=O)cc1 [Example 246, 5-[(5-cyanopyridin-2-yl)amino]-3-methyl-N-[4-(methylsulfonyl)phenyl]-1,2-thiazole-4-carboxamide]
23 | > 20 µM | CCN(CC)CCNC(=O)c1cccc(NC(=O)c2c(C)nsc2Nc2cnccn2)c1 [Example 247, N-(3-{[2-(diethylamino)ethyl]carbamoyl}phenyl)-3-methyl-5-(pyrazin-2-ylamino)-1,2-thiazole-4-carboxamide]
